Experimental data reported in US20240182420A1, “MICROBIOCIDAL ISONICOTINIC AMIDE DERIVATIVES” (SYNGENTA CROP PROTECTION AG, priority 2021, published 2024).

How the values were obtained:
Sclerotinia sclerotiorum = Sclerotinia sclerotiorum (cottony rot, white mold), liquid culture growth inhibition; format: cell-based; conditions: PDB nutrient broth, 24° C., 72 hrs, 620 nm, vs untreated control
Procedure: (§1) Mycelial fragments of the fungus prepared from a fresh liquid culture were directly mixed into nutrient broth (PDB potato dextrose broth). A DMSO solution of the test compounds was placed into a microtiter plate (96-well format) and the nutrient broth containing the fungal spores was added to it. The test plates were incubated at 24° C. and the inhibition of growth was determined photometrically after 72 hrs at 620 nm.

[1] = system: Phaeosphaeria nodorum syn. Septoria nodorum; assay: Phaeosphaeria nodorum syn. Septoria nodorum (glume blotch of wheat), wheat leaf segments, preventive; format: in vivo; conditions: Parastagonospora nodorum, foliar, 96 h, assessed 4 dpi, vs untreated control
Procedure: (§2) Wheat leaf segments are placed on agar in multiwell plates (24-well format) and sprayed with test solutions. After drying, the leaf disks are inoculated with a spore suspension of the fungus. After appropriate incubation the activity of a compound is assessed 4 dpi (days after inoculation) as preventive fungicidal activity.
The following compounds from Table T1 gave at least 80% control of Phaeosphaeria nodorum at 200 ppm when compared to untreated control under the same conditions, which sowed extensive disease development: • 1.1, 1.3, 1.7, 1.14, 1.39, 1.41, 1.86, 1.87, 1.92, 1.94, 1.95.

[2] = system: Monographella nivalis syn. Microdochium nivale, Fusarium nivale; assay: Monographella nivalis syn. Microdochium nivale (snow mould, foot rot), liquid culture growth inhibition; format: cell-based; conditions: PDB nutrient broth, 24° C., 72 hrs, 620 nm, vs untreated control
Procedure: as §1, with “Conidia” for “Mycelial fragments”, “fungus” for “fungus prepared”, “cryogenic storage” for “a fresh liquid culture”

Alternaria solani = Alternaria solani (early blight of tomato), tomato leaf disks, preventive; format: in vivo; conditions: foliar, 96 h, assessed 4 dpi, vs untreated control
Procedure: Tomato leaf disks are placed on water agar in multiwell plates (24-well format) and sprayed with test solutions. After drying, the leaf disks are inoculated with a spore suspension of the fungus. After appropriate incubation the activity of a compound is assessed 4 dpi (days post inoculation) as preventive fungicidal activity.

[3] = system: Botryotinia fuckeliana syn. Botrytis cinerea; assay: Botryotinia fuckeliana syn. Botrytis cinerea (gray mould), liquid culture growth inhibition; format: cell-based; conditions: PDB nutrient broth, 24° C., 72 hrs, photometric, vs untreated control
Procedure: as §1, with “Conidia” for “Mycelial fragments”, “fungus” for “fungus prepared”, “cryogenic storage” for “a fresh liquid culture”, “hrs.” for “hrs at 620 nm.”

[4] = system: Glomerella lagenarium syn Colletotrichum lagenarium; assay: Glomerella lagenarium syn. Colletotrichum lagenarium (anthracnose), liquid culture growth inhibition; format: cell-based; conditions: Colletotrichum orbiculare, PDB nutrient broth, 24° C., 72 hrs, 620 nm, vs untreated control
Procedure: as §1, with “Conidia” for “Mycelial fragments”, “fungus” for “fungus prepared”, “cryogenic storage” for “a fresh liquid culture”

[5] = system: Botryotinia fuckeliana syn. Botrytis cinerea; assay: Botryotinia fuckeliana syn. Botrytis cinerea (grey mold on tomato), tomato plants; format: in vivo; conditions: tomato plants cv. Roter Gnom, inoculated two days after application, leaf area covered by disease 5-6 days after application
Procedure: 4-week old tomato plants cv. Roter Gnom are treated sprayed in a spray chamber with the formulated test compound diluted in water. The test plants are inoculated by spraying them with a spore suspension two days after application. The inoculated test plants are incubated at 20° C. and 95% rh in a greenhouse and the percentage leaf area covered by disease is assessed when an appropriate level of disease appears on untreated check plants (5-6 days after application).

Pyrenophora teres = Pyrenophora teres (net blotch of barley), barley leaf segments, preventive; format: in vivo; conditions: foliar, 96 h, assessed 4 dpi, vs untreated control
Procedure: as §2, with “Barley” for “Wheat”, “incubation,” for “incubation”

Cc1cccc(Oc2cnc(C)cc2C(=O)NCC(F)c2ccc(Cl)cc2Cl)c1 (stereo not shown) [Compound 1.1, N-[2-(2,4-dichlorophenyl)-2-fluoro-ethyl]-2-methyl-5-(3-methylphenoxy)pyridine-4-carboxamide]
inhibition of growth at 20 ppm (Sclerotinia sclerotiorum): ≥ 80%
pest or weed control at 200 ppm [1]: ≥ 80%
inhibition of growth at 20 ppm [2]: ≥ 80%
pest or weed control at 200 ppm (Alternaria solani): ≥ 80%
inhibition of growth at 20 ppm [3]: ≥ 80%
inhibition of growth at 20 ppm [4]: ≥ 80%
pest or weed control at 200 ppm [5]: ≥ 50%
pest or weed control at 200 ppm (Pyrenophora teres): ≥ 80%

Cc1cc(C(=O)NCC(F)c2ccc(Cl)cc2Cl)c(Oc2cccc(C3CC3)c2)cn1 (stereo not shown) [Compound 1.14, 5-(3-cyclopropyl-phenoxy)-N-[2-(2,4-dichlorophenyl)-2-fluoro-ethyl]-2-methyl-pyridine-4-carboxamide]
inhibition of growth at 20 ppm (Sclerotinia sclerotiorum): ≥ 80%
pest or weed control at 200 ppm [1]: ≥ 80%
inhibition of growth at 20 ppm [2]: ≥ 80%
pest or weed control at 200 ppm (Alternaria solani): ≥ 80%
inhibition of growth at 20 ppm [3]: ≥ 80%
inhibition of growth at 20 ppm [4]: ≥ 80%
pest or weed control at 200 ppm [5]: ≥ 50%
pest or weed control at 200 ppm (Pyrenophora teres): ≥ 80%

Cc1ccc(C(F)CNC(=O)c2cc(C)ncc2Oc2cccc(C3CC3)c2)c(C)c1 (stereo not shown) [Compound 1.39, 5-(3-cyclopropyl-phenoxy)-N-[2-(2,4-dimethylphenyl)-2-fluoro-ethyl]-2-methyl-pyridine-4-carboxamide]
inhibition of growth at 20 ppm (Sclerotinia sclerotiorum): ≥ 80%
pest or weed control at 200 ppm [1]: ≥ 80%
inhibition of growth at 20 ppm [2]: ≥ 80%
pest or weed control at 200 ppm (Alternaria solani): ≥ 80%
inhibition of growth at 20 ppm [3]: ≥ 80%
inhibition of growth at 20 ppm [4]: ≥ 80%
pest or weed control at 200 ppm [5]: ≥ 50%
pest or weed control at 200 ppm (Pyrenophora teres): ≥ 80%

Cc1cc(C(=O)NC[C@@H](F)c2ccc(Cl)cc2Cl)c(Oc2cccc(C3CC3)c2)cn1 [Compound 1.41, 5-(3-cyclopropyl-phenoxy)-N-[(2S)-2-(2,4-dichlorophenyl)-2-fluoro-ethyl]-2-methyl-pyridine-4-carboxamide]
inhibition of growth at 20 ppm (Sclerotinia sclerotiorum): ≥ 80%
pest or weed control at 200 ppm [1]: ≥ 80%
inhibition of growth at 20 ppm [2]: ≥ 80%
pest or weed control at 200 ppm (Alternaria solani): ≥ 80%
inhibition of growth at 20 ppm [3]: ≥ 80%
inhibition of growth at 20 ppm [4]: ≥ 80%
pest or weed control at 200 ppm [5]: ≥ 50%
pest or weed control at 200 ppm (Pyrenophora teres): ≥ 80%

C#Cc1cncc(Oc2cccc(C3CC3)c2)c1C(=O)NCC(F)c1ccc(Cl)cc1Cl (stereo not shown) [Compound 1.87, 3-(3-cyclopropyl-phenoxy)-N-[2-(2,4-dichlorophenyl)-2-fluoro-ethyl]-5-ethynyl-pyridine-4-carboxamide]
inhibition of growth at 20 ppm (Sclerotinia sclerotiorum): ≥ 80%
pest or weed control at 200 ppm [1]: ≥ 80%
inhibition of growth at 20 ppm [2]: ≥ 80%
pest or weed control at 200 ppm (Alternaria solani): ≥ 80%
inhibition of growth at 20 ppm [3]: ≥ 80%
inhibition of growth at 20 ppm [4]: ≥ 80%
pest or weed control at 200 ppm [5]: ≥ 50%
pest or weed control at 200 ppm (Pyrenophora teres): ≥ 80%
